Laboratory results as given in publication PMC10312039 (Journal of Enzyme Inhibition and Medicinal Chemistry, 2023).

What was measured:
[1] = In vitro preliminary safety assessment: cytotoxicity on THP-1 cells; format: cell-based; settings: human, PMA-treated THP-1 monocytic cells
[2] = test system: L. donovani promastigotes; test: In vitro potency; format: cell-based; settings: Leishmania donovani, 72 h, read-out: IC50 against L. donovani promastigotes

| IC50 [2] | SMILES | CC50 at 72 h [1] |
| --- | --- | --- |
| 9.8 µM | CCCCCCCC/C=C\CCCCCCCCCCCCOP(=O)([O-])OCC[N+](C)(C)C [Erufosine] | 19.4 µM |
| 3.5 µM | CCCCCCCCCCCCCCCCOP(=O)([O-])OCC[N+](C)(C)C [Miltefosine] | – |
